Measured values reported in publication PMC10052977, “α,ω-Diacyl-Substituted Analogues of Natural and Unnatural Polyamines: Identification of Potent Bactericides That Selectively Target Bacterial Membranes” (International Journal of Molecular Sciences, 2023).
Read-outs that look alike come from different tables or passages of the source.

Key:
[1] = system: Staphylococcus aureus ATCC 25923 or ATCC 29213; experiment: MIC, broth dilution (CA-SFM); assay type: cell-based
MRSA ATCC 43300 = experiment: MIC, CO-ADD broth microdilution; assay type: cell-based, Staphylococcus aureus; settings: for MIC: Staphylococcus aureus, MRSA ATCC 43300, mean (n = 2), read-out: MIC MRSA
[2] = system: Escherichia coli ATCC 25922; experiment: MIC, CO-ADD broth microdilution; assay type: cell-based; settings: ATCC25922, mean (n = 2)
[3] = system: Pseudomonas aeruginosa PAO1 or ATCC 27853; experiment: MIC, broth dilution (CA-SFM); assay type: cell-based; settings: mean (n = 3)
[4] = system: Klebsiella pneumoniae ATCC700603; experiment: MIC, CO-ADD broth microdilution; assay type: cell-based; settings: mean (n = 2)
[5] = system: Acinetobacter baumannii ATCC19606; experiment: MIC, CO-ADD broth microdilution; assay type: cell-based; settings: mean (n = 2)
[6] = system: Candida albicans ATCC90028; experiment: Antifungal MIC, CO-ADD; assay type: cell-based; settings: mean (n = 2)
Outline: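 Yeast from 3-day YPD cultures was diluted in YNB broth to a final 2.5 × 10^3 CFU/mL and incubated at 35 °C for 36 h without shaking. C. albicans MICs were read by OD530 absorbance. QC used fluconazole and Z'-factor controls.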

[7] = system: Cryptococcus neoformans ATCC208821; experiment: Antifungal MIC, CO-ADD; assay type: cell-based; settings: ATCC208821, Cryptococcus neoformans ATCC208821, mean (n = 2)
Outline: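 Fungal strains were grown on YPD agar at 30 °C for 3 days. Five colonies were used to make a yeast suspension of 1 × 10^6 to 5 × 10^6 CFU/mL, which was diluted in yeast nitrogen base (YNB) broth to 2.5 × 10^3 CFU/mL. Covered plates were incubated without shaking at 35 °C for 36 h. Fluconazole was the positive control, and quality was judged from antimicrobial controls and the Z'-factor.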

[8] = Cytotoxicity assay (resazurin); assay type: cell-based, human; settings: human; HEK293 cells; mean (n = 2); highest dose tested 32 μg/mL; read-out: Cytotoxicity (concentration of compound at 50% cytotoxicity, IC50)
[9] = system: HEK293 human embryonic kidney cells; experiment: Cytotoxicity assay (resazurin); assay type: cell-based; settings: HEK293
human red blood cells = experiment: Hemolytic assay; assay type: cell-based; settings: for Hemolysis (HC10, concentration at 10% hemolytic activity): mean (n = 2)
Outline: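 Washed human erythrocytes at 0.5 × 10^8 cells/mL in 0.9% NaCl, shaken 10 min with compound, then held 1 h at 37 °C. Released hemoglobin in supernatant after centrifugation read at OD405; HC10 and HC50 from variable-slope sigmoidal fit against log concentration.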

MRSA (CF-Marseille) [10] = experiment: MIC, classical microdilution; assay type: cell-based; settings: Staphylococcus aureus, 4.4 μM = 4 μg/mL
[11] = system: Bacillus cereus ATCC 11778; experiment: MIC, classical microdilution; assay type: cell-based; settings: ATCC11778, 4.4 μM = 4 μg/mL
[12] = system: Bacillus cereus ATCC 11778; experiment: Minimum bactericidal concentration test; assay type: cell-based; settings: ATCC11778, same value as MIC
Method: (§1) A pure culture of a specified microorganism was grown overnight, then diluted in growth-supporting broth (typically Mueller–Hinton II broth) to a concentration between 1 × 10^5 and 1 × 10^6 CFU/mL. A stock dilution of the antimicrobial test compound was created at approximately 100 times the expected previously determined MIC. Further 1:1 dilution was made in 96-well microtiter plates. All dilutions of the test compound were inoculated with equal volumes of the specified microorganism (typically 100 µL). […] An aliquot of the positive control is plated and used to establish a baseline concentration of the microorganism used. The microtiter plates were then incubated at 37 °C for 24 h. Turbidity indicates growth of the microorganism, and the MIC is the lowest concentration where no growth is visually observed. To determine the minimum bactericidal concentration (MBC), the dilution representing the MIC and at least two of the more concentrated test product dilutions are plated on a solidified agar plate to determine the bacterial viability. The MBC is the lowest concentration where no growth is encountered when compared to the MIC dilution.

MRSA (CF-Marseille) [13] = experiment: Minimum bactericidal concentration test; assay type: cell-based; settings: Staphylococcus aureus, same value as MIC
Method: as §1

S. aureus ATCC 25923 [14] = experiment: Minimum bactericidal concentration test; assay type: cell-based; settings: Staphylococcus aureus, ATCC25923, same value as MIC
Method: as §1

MRSA (CF-Marseille) [15] = experiment: Real-time growth curves; assay type: cell-based, Staphylococcus aureus
Method: (§2) Solutions of compound 15d at concentrations of 2, 4 and 16 µg/mL were tested, each in triplicate, against S. aureus ATCC 25923, MRSA (CF-Marseille) and Bacillus cereus ATCC 11778. Typically, in a 96-well plate, 10 µL of 40, 80 and 320 µg/mL stock solutions of compound 15d were placed, as well as 190 µL of a 5 × 10^5 CFU/mL of the selected bacterial suspension in brain heart infusion (BHI) broth. Positive controls containing only 200 µL of a 5 × 10^5 CFU/mL of bacterial suspension in BHI and negative controls containing only 200 µL of BHI broth were added. The plate was incubated at 37 °C in a TECAN Spark Reader (Roche Diagnostic), and real-time bacterial growth was followed by OD590 nm measurement every 10 min during 19 h.

S. aureus ATCC 25923 [16] = experiment: Real-time growth curves; assay type: cell-based, Staphylococcus aureus
Method: as §2

[17] = system: Bacillus cereus ATCC 11778; experiment: Real-time growth curves; assay type: cell-based; settings: B. cereus ATCC 11778
Method: as §2

S. aureus ATCC 25923 [18] = experiment: ATP release assay (bioluminescence); assay type: cell-based, Staphylococcus aureus; settings: brief exposure
Method: The mechanism of action of antibacterial activity observed for 15d was attributed to the ability to disrupt the bacterial cell membrane.
Solutions of test compound 15d were prepared in DMSO at various concentrations. A suspension of growing S. aureus to be studied in Muller–Hinton II broth was prepared and incubated at 37 °C. An aliquot (90 µL) of this suspension was added to 10 µL of test compound solution and vortexed for 10 s. Luciferin–luciferase reagent (Yelen, France; 50 µL) was immediately added to this mixture and luminescent signal quantified with an Infinite M200 microplate reader (Tecan) over a 30 min period. ATP concentration was quantified by internal sample addition. A similar procedure was used for the CTAB positive control.

P. aeruginosa ATCC27853 = experiment: Doxycycline potentiation (MIC of antibiotic in presence of synergizing compound); assay type: cell-based, Pseudomonas aeruginosa; settings: doxycycline 2 μg/mL, P. aeruginosa ATCC 27853
[19] = Staphylococcus aureus ATCC 25923 or ATCC 29213, mean (n = 3), read-out: MIC S. a
[20] = at 4.4 μM (4 µg/mL) and 17 μM (16 µg/mL)
[21] = lowest tested concentration 2.2 μM (2 µg/mL)

| MIC [1, 19] [µM] | MIC (MRSA ATCC 43300) [µM] | MIC [2] [µM] | MIC [3] [µM] | MIC [4] [µM] | MIC [5] [µM] | MIC [6] [µM] | MIC [7] [µM] | fold increase (antibiotic enhancement vs intrinsic MIC) (P. aeruginosa ATCC27853) [fold] | Compound | IC50 at 20 h [8] [µM] | cytotoxicity [9] | hemolytic properties (human red blood cells) | Hemolysis (HC10, concentration at 10% hemolytic activity) (human red blood cells) [µM] | also measured |
| --- | --- | --- | --- | --- | --- | --- | --- | --- | --- | --- | --- | --- | --- | --- |
| 3.13 | ≤ 0.28 | 2.2 | 100 | > 35.4 | > 35.4 | > 35.4 | > 35.4 | – | O=C(CC(c1ccccc1)c1ccccc1)NCCCNCCCCCCCCNCCCNC(=O)CC(c1ccccc1)c1ccccc1.O=C(O)C(F)(F)F.O=C(O)C(F)(F)F [Compound 15d, N^1,N^8-Bis(3-(3,3-diphenylpropanamido)propyl)octane-1,8-diaminium 2,2,2-trifluoroacetate] | > 35.4 | no detectable | no detectable | >35.4 | MIC ([1]; Staphylococcus aureus, S. aureus ATCC 25923, classical microdilution, 4.4 μM = 4 μg/mL, read-out: MIC): 4.4 µM; MIC (MRSA (CF-Marseille) [10]): 4.4 µM; MIC [11]: 4.4 µM; MBC [12]: 4.4 µM; MBC (MRSA (CF-Marseille) [13]): 4.4 µM; MBC (S. aureus ATCC 25923 [14]): 4.4 µM; real-time growth inhibition (MRSA (CF-Marseille) [15]; [20]): completely inhibited; time after which bacterial growth was detected (MRSA (CF-Marseille) [15]; [21]): 4 h; real-time growth inhibition (S. aureus ATCC 25923 [16]; [20]): completely inhibited; time after which bacterial growth was detected (S. aureus ATCC 25923 [16]; [21]): 6 h; real-time growth inhibition [17, 20]: completely inhibited; time after which bacterial growth was detected [17, 21]: 12 h; leakage of intracellular ATP (S. aureus ATCC 25923 [18]): rapid dose-dependent leakage of intracellular ATP |
| 25 | ≤ 0.25 | > 31.5 | – | > 31.5 | > 31.5 | > 31.5 | ≤ 0.28 | 8 | O=C(CCC(=O)NCCC(c1ccccc1)c1ccccc1)NCCCNCCCCNCCCNC(=O)CCC(=O)NCCC(c1ccccc1)c1ccccc1.O=C(O)C(F)(F)F.O=C(O)C(F)(F)F [Compound 16a, N^1,N^4-Bis(3-(4-((3,3-diphenylpropyl)amino)-4-oxobutanamido)propyl)butane-1,4-diaminium 2,2,2-trifluoroacetate] | > 31.5 | – | – | >31.5 | MIC ([3]; 18 h): 20 µM |

Further lines, the molecule ahead of its results:

| Compound | MIC [1, 19] [µM] | MIC (MRSA ATCC 43300) [µM] | MIC [2] [µM] | MIC [3] [µM] | MIC [4] [µM] | MIC [5] [µM] | MIC [6] [µM] | MIC [7] [µM] | fold increase (antibiotic enhancement vs intrinsic MIC) (P. aeruginosa ATCC27853) [fold] | IC50 at 20 h [8] [µM] | cytotoxicity [9] | hemolytic properties (human red blood cells) | Hemolysis (HC10, concentration at 10% hemolytic activity) (human red blood cells) [µM] | also measured |
| --- | --- | --- | --- | --- | --- | --- | --- | --- | --- | --- | --- | --- | --- | --- |
| O=C(CC(c1ccccc1)c1ccccc1)NCCCNCCCCNCCCNC(=O)CC(c1ccccc1)c1ccccc1.O=C(O)C(F)(F)F.O=C(O)C(F)(F)F [Compound 15a, N^1,N^4-Bis(3-(3,3-diphenylpropanamido)propyl)butane-1,4-diaminium 2,2,2-trifluoroacetate] | 6.25 | ≤ 0.3 | ≤ 0.3 | 50 | > 37.8 | > 37.8 | > 37.8 | > 37.8 | 4 | > 37.8 | – | – | >37.8 | – |
| O=C(CCC(=O)NCCCc1ccccc1)NCCCNCCCCCCCCCCCCNCCCNC(=O)CCC(=O)NCCCc1ccccc1.O=C(O)C(F)(F)F.O=C(O)C(F)(F)F [Compound 14f, N^1,N^12-Bis(3-(4-oxo-4-((3-phenylpropyl)amino)butanamido)propyl)dodecane-1,12-diaminium 2,2,2-trifluoroacetate] | 6.25 | ≤ 0.26 | > 32.7 | > 100 | > 32.7 | > 32.7 | > 32.7 | > 32.7 | – | > 32.7 | non-toxic | non-hemolytic | >32.7 | activity towards MRSA (MRSA ATCC 43300; MRSA): potent |
| Cl.Cl.S=C(NCCCNCCCCCCCCCCNCCCNC(=S)NC(c1ccccc1)c1ccccc1)NC(c1ccccc1)c1ccccc1 [Compound 6e, N^1,N^10-Bis(3-(3-benzhydrylthioureido)propyl)decane-1,10-diaminium chloride] | > 247 | ≤ 0.31 | ≤ 0.31 | 247 | > 39.5 | 4.9 | ≤ 0.31 | > 39.5 | – | > 39.5 | – | – | >39.5 | antibiotic enhancement of doxycycline (P. aeruginosa ATCC27853): particularly strong enhancers; melting point: 114 to 115 °C |
